Experimental data taken from PubChem BioAssay (NCI).
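Compound exposure: 48 hours, 5 concentrations, 96-well plates. TGI: concentration producing complete growth inhibition.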

Assays:
Test in all cases: NCI-60 cell line screen, 48 h
SR leukemia = tested on: SR leukemia
ACHN renal = tested on: ACHN renal
HOP-18 NSCLC = tested on: HOP-18 NSCLC
UO-31 renal = tested on: UO-31 renal
NCI-H522 lung = tested on: NCI-H522 lung
OVCAR-8 ovarian = tested on: OVCAR-8 ovarian
SK-MEL-2 melanoma = tested on: SK-MEL-2 melanoma
M14 melanoma = tested on: M14 melanoma
NCI-H460 lung = tested on: NCI-H460 lung
RPMI-8226 leukemia = tested on: RPMI-8226 leukemia
OVCAR-3 ovarian = tested on: OVCAR-3 ovarian
IGROV1 ovarian = tested on: IGROV1 ovarian
SNB-78 CNS = tested on: SNB-78 CNS
UACC-257 melanoma = tested on: UACC-257 melanoma
KM12 colon = tested on: KM12 colon
SK-OV-3 ovarian = tested on: SK-OV-3 ovarian
CCRF-CEM leukemia = tested on: CCRF-CEM leukemia
LXFL 529 NSCLC = tested on: LXFL 529 NSCLC
HT29 colon = tested on: HT29 colon
SK-MEL-28 melanoma = tested on: SK-MEL-28 melanoma
CAKI-1 renal = tested on: CAKI-1 renal
HOP-92 NSCLC = tested on: HOP-92 NSCLC
SF-268 CNS = tested on: SF-268 CNS
EKVX NSCLC = tested on: EKVX NSCLC
HCC-2998 colon = tested on: HCC-2998 colon
SN12C renal = tested on: SN12C renal
SW-620 colon = tested on: SW-620 colon
UACC-62 melanoma = tested on: UACC-62 melanoma
HL-60(TB) leukemia = tested on: HL-60(TB) leukemia
A498 renal = tested on: A498 renal
U251 CNS = tested on: U251 CNS
NCI-H23 lung = tested on: NCI-H23 lung
TK-10 renal = tested on: TK-10 renal
M19-MEL melanoma = tested on: M19-MEL melanoma
KM20L2 colon = tested on: KM20L2 colon
SF-295 CNS = tested on: SF-295 CNS
LOX IMVI melanoma = tested on: LOX IMVI melanoma
DMS 273 small cell lung = tested on: DMS 273 small cell lung
DMS 114 small cell lung = tested on: DMS 114 small cell lung
A549 NSCLC = tested on: A549 NSCLC
HCT-116 colon = tested on: HCT-116 colon
SNB-75 CNS = tested on: SNB-75 CNS
HOP-62 NSCLC = tested on: HOP-62 NSCLC
HCT-15 colon = tested on: HCT-15 colon
XF 498 CNS = tested on: XF 498 CNS
COLO 205 colon = tested on: COLO 205 colon
RXF-631 renal = tested on: RXF-631 renal
RXF 393 renal = tested on: RXF 393 renal
MOLT-4 leukemia = tested on: MOLT-4 leukemia
K-562 leukemia = tested on: K-562 leukemia
OVCAR-5 ovarian = tested on: OVCAR-5 ovarian
SK-MEL-5 melanoma = tested on: SK-MEL-5 melanoma
NCI-H226 lung = tested on: NCI-H226 lung
SNB-19 CNS = tested on: SNB-19 CNS
MALME-3M melanoma = tested on: MALME-3M melanoma
DLD-1 colon = tested on: DLD-1 colon
786-0 renal = tested on: 786-0 renal

Which TGI (SR leukemia) does the source give for `CCSc1nnc(CSc2nc(-c3ccccc3)c(-c3ccccc3)[nH]2)n1-c1ccccc1` here?
Its TGI is 48.5 µM.

And the TGI (ACHN renal)?
Its TGI is 33.4 µM.

What about the TGI (HOP-18 NSCLC) of the same compound?
Its TGI is 30.4 µM.

What about the TGI (UO-31 renal) of the same compound?
Its TGI is 33 µM.

What about the TGI (NCI-H522 lung) of the same compound?
The TGI was 30.5 µM.

What about the TGI (OVCAR-8 ovarian) of the same compound?
The TGI was 51.9 µM.

What about the TGI (SK-MEL-2 melanoma) of the same compound?
The TGI was 45.6 µM.

And the TGI (M14 melanoma)?
The TGI was 34.9 µM.

And the TGI (NCI-H460 lung)?
The TGI was 36.9 µM.

And the TGI (RPMI-8226 leukemia)?
The TGI was 46.1 µM.

What about the TGI (OVCAR-3 ovarian) of the same compound?
Its TGI is 35.2 µM.

What about the TGI (IGROV1 ovarian) of the same compound?
The TGI was 42.3 µM.

What about the TGI (SNB-78 CNS) of the same compound?
Its TGI is > 100 µM.

What about the TGI (UACC-257 melanoma) of the same compound?
The TGI was 33.6 µM.

And the TGI (KM12 colon)?
The TGI was 32.1 µM.

What about the TGI (SK-OV-3 ovarian) of the same compound?
Its TGI is 60.8 µM.

What about the TGI (CCRF-CEM leukemia) of the same compound?
Its TGI is 49.4 µM.

And the TGI (LXFL 529 NSCLC)?
Its TGI is 67 µM.

What about the TGI (HT29 colon) of the same compound?
The TGI was 35.4 µM.

And the TGI (SK-MEL-28 melanoma)?
The TGI was 37 µM.

And the TGI (CAKI-1 renal)?
Its TGI is 63.7 µM.

And the TGI (HOP-92 NSCLC)?
The TGI was 38.5 µM.

And the TGI (SF-268 CNS)?
Its TGI is 43.3 µM.

What about the TGI (EKVX NSCLC) of the same compound?
Its TGI is 63.5 µM.

And the TGI (HCC-2998 colon)?
Its TGI is 36.5 µM.

And the TGI (SN12C renal)?
The TGI was 29.7 µM.

And the TGI (SW-620 colon)?
Its TGI is 30.2 µM.

And the TGI (UACC-62 melanoma)?
The TGI was 30.2 µM.

And the TGI (HL-60(TB) leukemia)?
Its TGI is 45.5 µM.

What about the TGI (A498 renal) of the same compound?
The TGI was 34.6 µM.

And the TGI (U251 CNS)?
The TGI was 31.7 µM.

What about the TGI (NCI-H23 lung) of the same compound?
Its TGI is 40.8 µM.

What about the TGI (TK-10 renal) of the same compound?
The TGI was 57.1 µM.

What about the TGI (M19-MEL melanoma) of the same compound?
The TGI was 33.3 µM.

And the TGI (KM20L2 colon)?
The TGI was 32.1 µM.

What about the TGI (SF-295 CNS) of the same compound?
Its TGI is 44.7 µM.

What about the TGI (LOX IMVI melanoma) of the same compound?
Its TGI is 43.8 µM.

What about the TGI (DMS 273 small cell lung) of the same compound?
Its TGI is 66.3 µM.

And the TGI (DMS 114 small cell lung)?
Its TGI is 39.1 µM.

And the TGI (A549 NSCLC)?
Its TGI is 80.9 µM.

What about the TGI (HCT-116 colon) of the same compound?
Its TGI is 36.2 µM.

And the TGI (SNB-75 CNS)?
The TGI was 42.9 µM.

What about the TGI (HOP-62 NSCLC) of the same compound?
Its TGI is 35.2 µM.

And the TGI (HCT-15 colon)?
Its TGI is 36 µM.

And the TGI (XF 498 CNS)?
The TGI was 35.3 µM.

What about the TGI (COLO 205 colon) of the same compound?
The TGI was 29.5 µM.

What about the TGI (RXF-631 renal) of the same compound?
The TGI was 63.3 µM.

What about the TGI (RXF 393 renal) of the same compound?
The TGI was 43.5 µM.

What about the TGI (MOLT-4 leukemia) of the same compound?
Its TGI is 40 µM.

What about the TGI (K-562 leukemia) of the same compound?
The TGI was 56.3 µM.

What about the TGI (OVCAR-5 ovarian) of the same compound?
Its TGI is 30.4 µM.

What about the TGI (SK-MEL-5 melanoma) of the same compound?
The TGI was 30.9 µM.

What about the TGI (NCI-H226 lung) of the same compound?
Its TGI is 27.7 µM.

What about the TGI (SNB-19 CNS) of the same compound?
The TGI was 34.2 µM.

And the TGI (MALME-3M melanoma)?
The TGI was 44.2 µM.

What about the TGI (DLD-1 colon) of the same compound?
The TGI was 37 µM.

What about the TGI (786-0 renal) of the same compound?
The TGI was 45.7 µM.
